“Also recorded” adds a separate entry of the source.

Data set [1] concerns Y201 models and OA models. The data set is described as follows: Aggrecan / collagen II immunofluorescence (IHC) of models and OA models with coatings or media modification. In kind it is cell-based, human. Here is the method:
(§1) To improve the overall quality of the model and encourage aggrecan deposition a range of separate coatings were applied to the 3D scaffold. The applied coatings were selected from human collagen type II, human hyaluronan and human aggrecan to empty 3D scaffolds. Specifically, COL-II was solubilised to 1 mg/mL in 0.5M acetic acid. Stock was diluted 1:500 in PBS and 10 uL layered onto each scaffold. Scaffolds were left to air dry overnight at 2-8 degrees. The next day scaffolds there gently washed in PBS and were ready for use. Hyaluronan was reconstituted into a 1% w/v stock in sterile water. 10 uL was added to each scaffold and left to polymerise at 37 degrees for 1 hour. Following this incubation scaffolds were ready to use. Aggrecan was reconstituted in PBS to create a 100ug/mL stock solution. This stock was used neat, with 10 uL added to each scaffold. Scaffolds were incubated at 37 degrees for several hours prior to use.
(§2) An independent modification was also made to the chondrogenic media. This involved the addition of the HAPLN1 link protein (SEQ ID NO: 1). Specifically, HAPLN1 stock solution was added to chondrogenic media at a working concentration of 100 ng/mL. The resulting medium composition (complete) is outlined in Table 1. L-Ascorbic acid-2-phosphate and HAPLN1 link protein have limited shelf life at 4° C. and so are added to aliquots of incomplete CDM (all components of Table 1 with the exception of L-Ascorbic acid-2-phosphate and HAPLN1 link protein) to create complete CDM on day 7. Preparation of HAPLN1 link protein (Cat #2608-HP RnD sytems) is as follows: • Unit concentration: 25 μg • Solvent: PBS • Reconstitution volume: 250 μl • Stock concentration: 100 μg/mL • Working concentration: 100 ng/mL • Use: 1:1000 dilution for working concentration. E.g. 50 μL of stock into 50 mL of media. • HAPLN1 is reportedly stable for 1 month at 4° C.
(§3) The resulting models were stimulated with cytokines using previously established protocols to create OA models. Following cytokine stimulation, the resulting OA models were harvested and analysed for q-PCR, and immunofluorescent (IF). The supernatant was also harvested and analysed using ELISAs and FRET assays. All analyses were conducted in triplicate.

The subject of the next data set is Y201 OA models. The data set is described as follows: q-PCR of OA models with coated scaffolds or HAPLN1 modified chondrogenic media. In kind it is cell-based, human. The conditions noted are these: OA models (cytokine stimulated); for fold change of MMP13 gene expression: scaffold coating or media supplement. The procedure:
as §1, §2, §3

Data set [2] has as its system Y201 models and OA models. The data set is described as follows: ELISA of MMP13 and ADAMTS4 in supernatant of modified models and OA models. Format: cell-based, human. As to conditions: OA models vs models; for MMP13 concentration in supernatant (ELISA): coating or supplement. Here is the method: as §1, §2, §3
(In general: In an ELISA, binding on a coated surface is turned into a signal by an enzyme label.)

For data set [3] the following is noted: at 4° C.; cited from earlier work.
Where [4] appears, read: models not stimulated with cytokines.
Setting [5] is: OA models (cytokine stimulated).

In the case of “Collagen type II: human collagen type II applied as coating to the 3D scaffold”, in data set [1] (setting [4]), the aggrecan staining entry is listed as “did not stain positively of aggrecan”. For the same molecule, the ADAMTS5 gene expression entry in the data set with Y201 OA models (coated scaffolds) is listed as “increase in expression of ADAMTS5”. In addition, the “MMP13 concentration in supernatant (ELISA)” value (from here on “MMP13 concentration”) in data set [2] was “decrease in the levels of MMP13”.
For Hyaluronan, the aggrecan staining entry in data set [1] (setting [4]) is reported as “did not stain positively of aggrecan”. In the data set with Y201 OA models (coated scaffolds), the “gene expression profile vs uncoated OA models” value was “comparable”. For the same molecule, the “ADAMTS4 concentration in supernatant (ELISA)” value in data set [2] (coating) was “increase in ADATS4 levels”. Moreover, the “MMP13 concentration” value in data set [2] is listed as “decrease in the levels of MMP13”.
Take “aggrecan: human aggrecan applied as coating to the 3D scaffold”: the aggrecan staining result in data set [1] (setting [5]) is “aggrecan was detected”; in data set [1] (setting [4]), “did not stain for aggrecan”. Besides, the “fold change of MMP13 gene expression” value with Y201 OA models is about 19 fold. The “MMP13 concentration” value in data set [2] is “increased MMP13 levels”.

B1: HAPLN1: hyaluronan and proteoglycan link protein 1 (SEQ ID NO: 1), added to chondrogenic media at 100 ng/mL (protein, listed as Homo sapiens)
chain: MKSLLLLVLISICWADHLSDNYTLDHDRAIHIQAENGPHLLVEAEQAKVFSHRGGNVTLPCKFYRDPTAFGSGIHKIRIKWTKLTSDYLKEVDVFVSMGYHKKTYGGYQGRVFLKGGSDSDASLVITDLTLEDYGRYKCEVIEGLEDDTVVVALDLQGVVFPYFPRLGRYNLNFHEAQQACLDQDAVIASFDQLYDAWRGGLDWCNAGWLSDGSVQYPITKPREPCGGQNTVPGVRNYGFWDKDKSRYDVFCFTSNFNGRFYYLIHPTKLTYDEAVQACLNDGAQIAKVGQIFAAWKILGYDRCDAGWLADGSVRYPISRPRRRCSPTEAAVRFVGFPDKKHKLYGVYCFRAYN
For the molecule B1, the “collagen II production (immunofluorescence)” value in data set [1] (MSCs differentiated to chondrocytes in presence of HAPLN1) is recorded as “does not have a negative effect on collagen II production”. Further, the aggrecan staining entry in data set [1] (setting [5]) is “no staining of aggrecan”; in data set [1] (setting [4]), “did stain for aggrecan; also recorded: significant levels of ACAN protein”. The stability in data set [3] was 1 month. In addition, the “fold change of MMP13 gene expression” value with Y201 OA models is listed as about 6 fold. For the same molecule, in data set [2], the “MMP13 concentration” value is “increased MMP13 levels”.

Source of the values: patent US20250109384A1, “A CELLULAR COMPOSITE” (ALCYOMICS LIMITED, priority 2022, published 2025).
